From patent US12311025B2, “Formulations for eye treatments” (Avedro, Inc., priority 2017, dated 2025)
In brackets after ≈: the same amount, converted by molar mass.

Columns and labels:
[1] = cited from earlier work
[2] = Solubility of FMN in co-solvents; type: physicochemical; details: organic solvent or mixture
Source text: Other penetration-enhancing agents may include a non-ionic co-solvent as a tonicity agent in a formulation. Tonicity agents that are sufficiently low in MW can readily diffuse into the tissues. The therapeutic agent having good solubility in the co-solvent can experience enhanced delivery through the epithelium and into the stroma. Propylene glycol may be a penetration enhancer for topical formulations by this mechanism of action. Thus, the one or more therapeutic formulations 304 may include one or more co-solvents as tonicity agents 304c. A list of co-solvents that may be used to increase therapeutic agent delivery via this mechanism of action and suitable for ophthalmic use are shown in TABLE 2.
Both propylene glycol and glycerin may be employed as ingredients in dry eye drops. Glycerin has been evaluated for therapeutic agent delivery into the eye and is capable of penetrating the cornea. For instance, FMN has solubility in propylene glycol and glycerin that is greater than the total concentration in the formulation. As the co-solvent penetrates the tissues, it may carry some FMN into the tissues as well enhancing the delivery. Replacing the sodium chloride with glycerin or propylene glycol should not negatively impact therapeutic agent delivery of the FMN.

Row | solubility ([2]; in ethanol) | solubility ([2]; in glycerin) | solubility ([2]; in propylene glycol) | Compound | solubility in water [1]
1 |  |  |  | CC1CCC(C(C)C)C(O)C1 (stereo not shown) [menthol] | 0.04%
2 | 80 µg/mL (≈ 0.175 mM) | 8900 µg/mL (≈ 19.5 mM) | 5700 µg/mL (≈ 12.5 mM) | Cc1cc2nc3c(=O)[nH]c(=O)nc-3n(C[C@H](O)[C@H](O)[C@H](O)COP(=O)(O)O)c2cc1C [FMN, riboflavin-5′-phosphate] | 
